{"source": "patent US20230323463A1", "about": "“COMPOSITIONS AND METHODS FOR DETECTING BCL2L14 AND ETV6 GENE FUSIONS FOR DETERMINING INCREASED DRUG RESISTANCE” (UNIVERSITY OF PITTSBURGH-OF THE COMMONWEALTH SYSTEM OF …, priority 2020, published 2023)", "format_in_all_cases": "cell-based, human", "key": {"[1]": {"tested_on": "engineered stable BT20 cells", "test": "Paclitaxel dose curve, cell proliferation by MTS assay", "conditions": "BT20 cells expressing BCL2L14-ETV6 fusions vs vector or wtETV6; short-term (72 h) treatment, various doses", "procedure": "(§1) Cell proliferation and clonogenic assays. Engineered stable BT20 cells were seeded at a density of 3,000 cells/well in a 96-well plate. Cell proliferation was measured by MTS assay at different time points using CellTiter 96 AQueous One Solution Cell Proliferation Assay (Promega). For paclitaxel dose curve, stable BT20 cells were seeded at a density of 5000 cells/well in a 96-well plate and treated with vehicle or different doses of paclitaxel. Cell proliferation was measured by MTS assay after 72 hours of treatment. For clonogenic assay, stable BT20 or MCF10A cells were seeded at a density of 10,000 cells/well in a 24-well plate. After attachment to the plate, cells were treated with 0.1% DMSO (vehicle) or paclitaxel at 5 nM for BT20 cells for 6 days or 15 nM for MCF10A cells for 5 days before replacement of the chemical with fresh growth medium. The remaining colonies were growing in the plate for one month and then stained with 0.5% crystal violet in 50% ethanol and counted using ChemiDoc photography (Bio-Rad) and ImageJ."}, "[2]": {"tested_on": "engineered stable BT20 cells", "test": "Clonogenic assay after prolonged paclitaxel treatment, BT20", "conditions": "5 nM paclitaxel, one month", "procedure": "as §1"}, "[3]": {"tested_on": "engineered stable MCF10A cells", "test": "Clonogenic assay after prolonged paclitaxel treatment, MCF10A", "conditions": "MCF10A cells expressing BCL2L14-ETV6 fusions vs vector or wtETV6; 15 nM paclitaxel, one month", "procedure": "as §1"}, "engineered BT20 cells": {"tested_on": "engineered BT20 cells", "test": "Apoptotic biomarkers by immunoblotting after paclitaxel treatment", "conditions": "BT20 cells overexpressing BCL2L14-ETV6 fusions vs wtETV6-expressing cells; 48 hours", "description": "Western blot. For immunoblot analysis, total proteins were extracted by homogenizing the cells in NP40 Lysis Buffer supplemented with complete protease inhibitor cocktail tablet (Roche), 1 mM DTT, and 1 mM PMSF. 20~50 micrograms of protein extracts were denatured in sample buffer, separated by SDS-PAGE, and transferred onto a PVDF membrane (GE). The membranes were blocked and then incubated for 1 h at room temperature or overnight at 4° C. with primary antibodies, followed by incubation with respective horseradish peroxidaseconjugated secondary antibody. The signals were then visualized by the enhanced chemiluminescence system (Clarity Western ECL Substrate and ChemiDoc imaging system, Bio-Rad)."}}, "note": "Entries after “also recorded” stand apart in the source; their conditions may differ.", "data": [{"smiles": "CC(=O)O[C@H]1C(=O)[C@@]2(C)[C@H]([C@H](OC(=O)c3ccccc3)[C@]3(O)C[C@H](OC(=O)[C@H](O)[C@@H](NC(=O)c4ccccc4)c4ccccc4)C(C)=C1C3(C)C)[C@]1(OC(C)=O)CO[C@@H]1C[C@@H]2O", "note": "[paclitaxel]", "values": [{"measurement": "sensitivity to paclitaxel (cell viability)", "setting": "[1]", "result": "modest reduced sensitivity; also recorded: increased resistance"}, {"measurement": "clonal resistance to paclitaxel", "setting": "[2]; BT20 cells expressing BCL2L14-ETV6 fusions (E2E3, E4E3, E4E2)", "result": "evident clonal resistance; also recorded: clonal resistance in BT20 cells"}, {"measurement": "clonal survival after paclitaxel", "setting": "[2]; BT20 cells expressing wtETV6 or vector control", "result": "almost eradicated"}, {"measurement": "clonal resistance to paclitaxel", "setting": "[3]", "result": "increased clonal resistance; also recorded: clonal resistance in MCF10A cells"}, {"measurement": "apoptosis biomarkers following paclitaxel treatment", "setting": "engineered BT20 cells", "result": "did not show evident reduced apoptosis"}]}]}
